Test results from patent US20220105058A1, “USE OF 3-O-SULFAMATE-16,16-DIMETHYL-D-HOMOEQUILENIN TO TREAT ONCOLOGICAL DISEASES” (priority 2018, published 2022).
“And” between values parts separate entries of the source, which are not always exact repeats. Identical values can stand only once. “Also recorded” adds a separate entry of the source. Like-named read-outs stand apart in the source and are kept apart here.

What was measured:
[1] = system: MCF-7 human cells culture (breast adenocarcinoma); assay: proliferation of passaged MCF-7 cell culture; type: cell-based
Method: (§1) The study analysis was carried out on an passaged MCF-7 human cells culture culture (breast adenocarcinoma). Normal human dermal fibroblasts (HDF) of early passages were used as a negative control. The cells were cultivated in Carrel vials in DMEM/F12 medium (Biolot) with 1.0% of antibiotic-free fetal bovine embryonic serum (Biolot) added in the 5% CO2 atmosphere, at 37° C.
The cells were seeded on Carrel vials at 50×10^4 cells per flask. To study the proliferative activity of the cells under conditions of sulfatase inhibition, 24 hours after seeding the culture medium […], and then these tumor cell lines were incubated for various periods of time (24 to 72 hrs). The inhibitor was dissolved in DMSO. […] To exclude the cytotoxic effect of DMSO, a control sample comprising DMSO without sulfatase inhibitor was prepared. To exclude nonspecific detrimental effects of the compounds, normal human skin fibroblasts were used. Then the cells were detached with the versene-trypsin solution (Biolot), plated onto Carrel vials containing a fresh complete culture medium. The cells were counted when untreated control cells reached the maximum cell density per unit of surface area of a culture flask (monolayer), and their number was set as 100%. The proliferative activity of all of the studied cell cultures exposed to sulfatase inhibitors was determined in triplicate.

[2] = system: uterine body without horns; assay: uterine body weight (hormonal effect) on Day 28; type: in vivo, FVB mice transgenic for HER-2/neu; details: for Uterine body weight: Day 28; for uterotropic activity / hormonal effect: mouse, in vivo
Method: To estimate the hormonal effect of the medicament, the weight of uterine body without horns was measured on Day 28 of the observation period (Table 9).

estrogen receptors = assay: study of binding to the estrogen receptors; details: concentrations of −0.001 and 0.01, 0.1 and 1.0 μmol/ml
[3] = system: Normal human dermal fibroblasts (HDF); assay: growth of normal human skin fibroblasts (negative control); type: cell-based; details: concentration of 20 μg/ml
Method: as §1
The cells were seeded on Carrel vials at 50×10^4 cells per flask. To study the proliferative activity of the cells under conditions of sulfatase inhibition, 24 hours after seeding the culture medium was […], and then these tumor cell lines were incubated for various periods of time (24 to 72 hrs). The inhibitor was dissolved in DMSO. […] To exclude the cytotoxic effect of DMSO, a control sample comprising DMSO without sulfatase inhibitor was prepared. To exclude nonspecific detrimental effects of the compounds, normal human skin fibroblasts were used. Then the cells were detached with the versene-trypsin solution (Biolot), plated onto Carrel vials containing a fresh complete culture medium. The cells were counted when untreated control cells reached the maximum cell density per unit of surface area of a culture flask (monolayer), and their number was set as 100%. The proliferative activity of all of the studied cell cultures exposed to sulfatase inhibitors was determined in triplicate.

[4] = system: triple negative breast cancer MDA-MB-231 cell line; assay: cell proliferation in MDA-MB-231; type: cell-based
[5] = system: hepatocellular carcinoma SK-Hep-1 cells; assay: activity against SK-Hep-1 cells; type: cell-based; details: Homo sapiens, SK-HEP1
lung cancer A549 = assay: activity against A549; type: cell-based; details: Homo sapiens
[6] = system: gastric adenocarcinoma SNU638; assay: activity against SNU638; type: cell-based; details: Homo sapiens, SNU-638
[7] = system: chronic myelogenous leukemia cells (K562); assay: activity against K562; type: cell-based
[8] = acute oral toxicity, OECD 423 test; details: for Lethal effects (dead/total): 14 days observation
Method: LD50 of the medicament was determined in FVB mice transgenic for HER-2/neu using the OECD 423 test (OECD guideline for testing of chemicals. Acute Oral Toxicity-Acute Toxic Class Method).
12 female mice were used in the experiment.
At the first step, 3 mice were given the medicament at a dose of 300 mg/kg. The study medicament was administered intragastrically (i.g.) using a metal atraumatic gavage (the procedure corresponds to the oral administration in clinical settings). […] The dosage form for administration was prepared ex tempore.
The animals were examined 2 times a day, clinically examined individually after the dose administration during the first 60 minutes, with special attention during the first 4 hours, periodically during the first 24 hours, on Day 2 and weekly for up to 14 days. Each animal was thoroughly examined in the housing cage in the observer's hands. The overall conditions of the animals were recorded, such as peculiarities in their behavior, intensity and nature of motor activity, fur and skin appearance.
The body weights of the animals were recorded using a verified high-speed electronic laboratory balance Ohaus Scout Pro (USA) with a maximum load of 2000 g and a measurement step of 0.1 g.
On Day 15, the animals were euthanized and undergone autopsy analysis with the registration of macroscopic changes. The data was collected in a special individual autopsy form.
All of the experimental animals were subject to pathomorphological examination at the end of the study. The euthanized animals were carefully examined for the external pathological changes. The chest and abdominal cavities were examined along with the macroscopic analysis of internal organs.
When assessing the acute toxicity the animals were continuously observed for the first 60 minutes, and then examined every hour for 3 hours and further once in 24 hours. On the second day, the observation was carried out twice per day. Further the observations were made once per day. […] The animal was thoroughly examined in the housing cage in the observer's hands. The overall conditions of the animals were recorded, such as peculiarities in their behavior, intensity and nature of motor activity, fur and skin appearance.

[9] = cholesterol and triglycerides in blood serum (summary statement)
endometrium = assay: effects on the endometrium (summary statement)

CC/C(=C(\c1ccccc1)c1ccc(OCCN(C)C)cc1)c1ccccc1 [Tamoxifen]
proliferation of tumor MCF-7 cells [1]: inhibited to the same extent | Uterine body weight ([2]; Tamoxifen 4 mg/kg, All mice): 28 ± 1 mg | Uterine body weight ([2]; Tamoxifen 4 mg/kg, estrus (E-9)): 28 ± 1 mg

CC1(C)CC(=O)[C@@]2(C)CCc3c(ccc4cc(OS(N)(=O)=O)ccc34)[C@@H]2C1 [medicament, 3-O-sulfamate-16,16-dimethyl-D-homoequilenin]
hormone activity (estrogen receptors): lacks hormone activity | proliferation of tumor MCF-7 cells [1]: completely inhibits proliferation | proliferation of tumor MCF-7 cells ([1]; concentration of 20 μg/ml): completely blocks the proliferation | growth of human skin fibroblasts [3]: does not influence the growth | inhibition of cell proliferation [4]: 83% | IC50 [5]: 53.4 µM | IC50 (lung cancer A549): 29.6 µM | IC50 [6]: 22.8 µM | activity against K562 cells [7]: active | signs of intoxication ([8]; 300 mg/kg): None of the animals exhibited visual signs of intoxication | Lethal effects (dead/total) ([8]; 300 mg/kg i.g.): no animals died and no animals deaths were detected and 0/6 | average body weight ([8]; 300 mg/kg, Day 1 (before administration)): 28.1 g | body weight of individual mice ([8]; 300 mg/kg, Day 1 (before administration), in g (unit assumed)): 29.6 and 27.8 and 28.0 and 30.0 and 27.0 and 26.4 | average body weight ([8]; 300 mg/kg, Day 2): 28.1 g | average body weight, % from baseline ([8]; 300 mg/kg, Day 2): 0% | body weight of individual mice ([8]; 300 mg/kg, Day 2, in g (unit assumed)): 29.2 and 27.4 and 27.8 and 30.4 and 27.2 and 26.8 | average body weight ([8]; 300 mg/kg, Day 7): 29.1 g | average body weight, % from baseline ([8]; 300 mg/kg, Day 7): 3% | body weight of individual mice ([8]; 300 mg/kg, Day 7, in g (unit assumed)): 29.6 and 28.2 and 29.7 and 31.2 and 28.4 and 27.2 | average body weight ([8]; 300 mg/kg, Day 14): 29.5 g | average body weight, % from baseline ([8]; 300 mg/kg, Day 14): 5% | body weight of individual mice ([8]; 300 mg/kg, Day 14, in g (unit assumed)): 30.2 and 29.0 and 30.6 and 31.1 and 28.6 and 27.6 | clinical signs of intoxication ([8]; 2000 mg/kg): No clinical signs of intoxication were observed | Lethal effects (dead/total) ([8]; 2000 mg/kg i.g. in 2 steps): 0/6 | average body weight ([8]; 2000 mg/kg, Day 1 (before administration)): 26.2 g | body weight of individual mice ([8]; 2000 mg/kg, Day 1 (before administration), in g (unit assumed)): 28.4 and 27.5 and 25.7 and 24.2 and 24.0 and 27.2 | average body weight ([8]; 2000 mg/kg, Day 2): 25.8 g | average body weight, % from baseline ([8]; 2000 mg/kg, Day 2): −1% | decrease in the average body weight from baseline ([8]; 2000 mg/kg, Day 2): 1% | body weight of individual mice ([8]; 2000 mg/kg, Day 2, in g (unit assumed)): 28.0 and 26.8 and 25.3 and 24.4 and 23.8 and 26.4 | average body weight ([8]; 2000 mg/kg, Day 7): 25.7 g | average body weight, % from baseline ([8]; 2000 mg/kg, Day 7): −2% | decrease in the average body weight from baseline ([8]; 2000 mg/kg, Day 7): 2% | body weight of individual mice ([8]; 2000 mg/kg, Day 7, in g (unit assumed)): 26.8 and 24.9 and 25.0 and 25.9 and 25.4 and 26.3 | average body weight ([8]; 2000 mg/kg, Day 14): 27 g | average body weight, % from baseline ([8]; 2000 mg/kg, Day 14): 3% | body weight of individual mice ([8]; 2000 mg/kg, Day 14): 26.9 (2×) and 26.0 and 26.6 and 28.7 and 27.0 | macroscopic examination of internal organs at autopsy ([8]; Day 15): did not reveal any pathological changes; also recorded: did not reveal any abnormalities | hazard class / category ([8]; mouse, in vivo): 5th or non-classified category and 4th hazard class and 5th or unclassified category | toxicity ([8]; summary statement): absence of toxicity | Uterine body weight ([2]; medicament 20 mg/kg, All mice): 27 ± 5 mg | Uterine body weight ([2]; medicament 20 mg/kg, diestrus (D-7)): 19 ± 3 mg | Uterine body weight ([2]; medicament 20 mg/kg, estrus (E-3)): 45 ± 7 mg | Uterine body weight ([2]; medicament 100 mg/kg, All mice): 26 ± 6 mg | Uterine body weight ([2]; medicament 100 mg/kg, diestrus (D-8)): 19 ± 4 mg | Uterine body weight ([2]; medicament 100 mg/kg, estrus (E-2)): 50 ± 10 mg | uterotropic activity / hormonal effect [2]: No significant differences; also recorded: no uterotropic activity | uterotropic activity / hormonal effect ([2]; listed as compound): absence of uterotropic activity | effects on the content of triglycerides in blood serum [9]: absence of effects | hypocholesterolemic activity [9]: hypocholesterolemic activity | negative effects on the endometrium (endometrium): absence of negative effects
